This assay addresses T1, HLA-DR1 (Homo sapiens, UniProt P01903+P01911, A100R/D57E/F55L/F60I/F76Y/I96L/L162R/M171V/P40L/Q125E/R42F/V115G/Y59C).
T1 construct: made in house; host or cells: stably transfected Drosophila S2 insect cell lines (DR1 and DM separately)
It counts as binding.

Turning to “PVSKMRMATPLLMQA [CLIP, residues 87–101 of the CLIP peptide]”, the “largest CLIP/DR1 complex dissociation measured” value is roughly 55% and the “t 1/2 of CLIP dissociation from DR1” value was “approximately 80 min”.

The values above are taken from article PMC2580030 (PLoS ONE, 2008).
